Kd data for three compounds are collected here from US12534469B2 (CHILDREN'S HOSPITAL MEDICAL CENTER, priority 2020, dated 2026).

pKd: −log10 of the molar value.

This assay has as its target T1, FLT3 N841I (Homo sapiens, UniProt P36888, N841I).
T1 construct: purchased DiscoverX (KINOMEscan); host or cells: E. coli (T7 phage) or HEK-293
T1 sequence (P36888 27-993 N841I): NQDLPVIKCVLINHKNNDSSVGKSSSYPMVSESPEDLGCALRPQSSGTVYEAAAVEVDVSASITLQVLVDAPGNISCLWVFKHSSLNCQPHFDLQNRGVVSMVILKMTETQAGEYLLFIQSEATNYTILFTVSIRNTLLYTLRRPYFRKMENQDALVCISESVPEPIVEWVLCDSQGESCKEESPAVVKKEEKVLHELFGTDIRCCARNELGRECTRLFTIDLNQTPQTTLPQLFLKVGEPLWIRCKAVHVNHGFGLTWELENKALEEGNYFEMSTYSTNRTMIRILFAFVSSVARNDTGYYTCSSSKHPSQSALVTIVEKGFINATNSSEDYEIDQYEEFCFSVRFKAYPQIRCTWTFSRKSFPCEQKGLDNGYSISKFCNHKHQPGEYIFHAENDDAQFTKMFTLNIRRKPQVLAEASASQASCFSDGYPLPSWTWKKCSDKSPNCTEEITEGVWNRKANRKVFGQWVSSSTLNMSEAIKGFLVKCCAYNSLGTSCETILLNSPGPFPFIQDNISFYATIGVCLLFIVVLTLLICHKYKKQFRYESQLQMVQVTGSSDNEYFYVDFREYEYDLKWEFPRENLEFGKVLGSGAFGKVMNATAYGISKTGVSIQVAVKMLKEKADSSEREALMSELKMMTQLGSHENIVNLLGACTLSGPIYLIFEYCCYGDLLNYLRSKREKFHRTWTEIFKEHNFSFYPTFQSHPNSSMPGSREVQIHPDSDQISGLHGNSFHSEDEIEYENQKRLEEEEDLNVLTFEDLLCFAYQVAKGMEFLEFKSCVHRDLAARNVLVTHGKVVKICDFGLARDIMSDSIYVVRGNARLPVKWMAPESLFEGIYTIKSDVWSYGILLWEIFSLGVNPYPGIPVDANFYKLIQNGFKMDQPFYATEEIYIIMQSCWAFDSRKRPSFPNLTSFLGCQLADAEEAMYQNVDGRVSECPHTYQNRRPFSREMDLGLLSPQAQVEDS
As to the kind of experiment: DiscoverX KINOMEscan competition binding assay, FLT3 N841I. An excerpt:
Kinase binding data were obtained for various exemplary compounds prepared according to Examples 1-25 using the DiscoverX KINOMEscan® active site-directed competition binding site-directed assay protocol described below. […] As a result, the data report thermodynamic interaction affinities (Kd values), rather than IC50 values that are dependent on ATP concentrations. The assay uses a DNA-tagged version of the protein kinase, and an immobilized ligand bound to a solid support. Compounds that directly or indirectly prevent kinase binding to the immobilized ligand reduce the amount of kinase captured on the solid support, which is detected using an ultra-sensitive qPCR method. Affinity constants reported from the assay have been reported to be independent of the immobilized ligand used that is coupled to the solid support (See supplemental information in Fabian, M. A. et. al., (2005) Nat. Biotechnol. 23, 329-336; Wodicka, L. M. et. al., (2010) Chem. Biol. 17, 1241-1249.)
Kinase-tagged T7 phage strains were prepared in an E. coli host derived from the BL21 strain. E. coli were grown to log-phase and infected with T7 phage and incubated with shaking at 32° C. until lysis. The lysates were centrifuged and filtered to remove cell debris. The remaining kinases were produced in HEK-293 cells and subsequently tagged with DNA for qPCR detection. […] The liganded beads were blocked with excess biotin and washed with blocking buffer (SeaBlock (Pierce), 1% BSA, 0.05% Tween 20, 1 mM DTT) to remove unbound ligand and to reduce non-specific binding. […] Test compounds were prepared as 111× stocks in 100% DMSO. Kds were determined using an 11-point 3-fold compound dilution series with three DMSO control points. […] The compounds were then diluted directly into the assays such that the final concentration of DMSO was 0.9%. All reactions were performed in polypropylene 384-well plates. Each was a final volume of 0.02 mL. […] The kinase concentration in the eluates was measured by qPCR.
Binding constants (Kds) were calculated with a standard dose-response curve using the Hill equation. […]
`COc1cc2ncc(-c3cccc(N[C@@H]4CCNC4)n3)n2nc1C1CC1` [Compound 97, (R)-6-(6-cyclopropyl-7-methoxyimidazo[1,2-b]pyridazin-3-yl)-N-(pyrrolidin-3-yl)pyridin-2-amine]: the pKd (as a rule, −log10 of the Kd, conventionally taken in molar units) was 9.26. The figure for `COc1cc2ncc(-c3cccc(N[C@H]4CNCC[C@@H]4F)n3)n2nc1C1CC1` [Compound 102, 6-(6-cyclopropyl-7-methoxyimidazo[1,2-b]pyridazin-3-yl)-N-((3S,4S)-4-fluoropiperidin-3-yl)pyridin-2-amine] is 9.44; for `COc1cc2ncc(-c3cccc(N[C@H]4CNC[C@@H]4F)n3)n2nc1C1CC1` [Compound 96, 6-(6-cyclopropyl-7-methoxyimidazo[1,2-b]pyridazin-3-yl)-N-((3S,4S)-4-fluoropyrrolidin-3-yl)pyridin-2-amine] it is 9.04.
